Converted amounts (≈) assume the structure as drawn. The source made the active and inactive calls. No cut-off for these calls is given here.
Key:
[1] = tested on: Trypanosoma brucei rhodesiense; experiment: Antitrypanosomal activity against wild-type Trypanosoma brucei rhodesiense STIB900 by Alamar blue assay; assay type: functional, organism-based
[2] = tested on: Trypanosoma brucei rhodesiense; experiment: Antitrypanosomal activity against pentamidine-resistant Trypanosoma brucei rhodesiense STIB900 by Alamar blue assay; assay type: functional, organism-based
[3] = tested on: Trypanosoma brucei rhodesiense; experiment: Antitrypanosomal activity against melasoprol-resistant Trypanosoma brucei rhodesiense STIB900 by Alamar blue assay; assay type: functional, organism-based
[4] = tested on: Trypanosoma brucei gambiense; experiment: Antitrypanosomal activity against Trypanosoma brucei gambiense K03048 by Alamar blue assay; assay type: functional, organism-based
[5] = tested on: Trypanosoma brucei gambiense; experiment: Antitrypanosomal activity against Trypanosoma brucei gambiense ITMAP141267 by Alamar blue assay; assay type: functional, organism-based
[6] = tested on: Trypanosoma brucei gambiense; experiment: Antitrypanosomal activity against Trypanosoma brucei gambiense STIB930 by Alamar blue assay; assay type: functional, organism-based
[7] = tested on: Trypanosoma brucei brucei; experiment: Antitrypanosomal activity against Trypanosoma brucei brucei BS221 by Alamar blue assay; assay type: functional, organism-based
[8] = tested on: Trypanosoma brucei brucei; experiment: Antitrypanosomal activity against Trypanosoma brucei brucei AT1KO by Alamar blue assay; assay type: functional, organism-based
[9] = tested on: Trypanosoma brucei rhodesiense; experiment: Ratio of IC50 for pentamidine-resistant Trypanosoma brucei rhodesiense STIB900 to IC50 for wild-type Trypanosoma brucei rhodesiense STIB900; assay type: functional
[10] = tested on: Trypanosoma brucei rhodesiense; experiment: Ratio of IC50 for melasoprol-resistant Trypanosoma brucei rhodesiense STIB900 to IC50 for wild-type Trypanosoma brucei rhodesiense […]; assay type: functional
[11] = Ratio of IC50 for Trypanosoma brucei gambiense K03048 to IC50 for wild-type Trypanosoma brucei rhodesiense STIB900; assay type: functional
[12] = Ratio of IC50 for Trypanosoma brucei gambiense ITMAP141267 to IC50 for wild-type Trypanosoma brucei rhodesiense […]; assay type: functional
[13] = Ratio of IC50 for Trypanosoma brucei gambiense STIB930 to IC50 for wild-type Trypanosoma brucei rhodesiense […]; assay type: functional
[14] = tested on: Trypanosoma brucei brucei; experiment: Ratio of IC50 for Trypanosoma brucei brucei AT1KO to IC50 for Trypanosoma brucei brucei BS221; assay type: functional
[15] = tested on: Trypanosoma brucei rhodesiense; experiment: Antitrypanosomal activity against wild-type Trypanosoma brucei rhodesiense STIB900 infected in NMRI mouse assessed as survival of mouse at 20 mg/kg, ip for 4 days; assay type: functional; settings: route intraperitoneal
[16] = tested on: Trypanosoma brucei rhodesiense; experiment: Antitrypanosomal activity against wild-type Trypanosoma brucei rhodesiense STIB900 infected in NMRI mouse assessed as survival of mouse at 5 mg/kg, ip for 4 days; assay type: functional; settings: route intraperitoneal
[17] = tested on: Trypanosoma brucei gambiense; experiment: Ratio of IC50 for Trypanosoma brucei gambiense K03048 to IC50 for Trypanosoma brucei gambiense STIB930; assay type: functional
[18] = tested on: Trypanosoma brucei rhodesiense; experiment: Antitrypanosomal activity against wild-type Trypanosoma brucei rhodesiense STIB900 infected in NMRI mouse assessed as cure from infection at 20 mg/kg, ip for 4 days; assay type: functional, organism-based; set-up: dose 20 mg/kg
[19] = tested on: Trypanosoma brucei rhodesiense; experiment: Antitrypanosomal activity against wild-type Trypanosoma brucei rhodesiense STIB900 infected in NMRI mouse assessed as cure from infection at 10 mg/kg, ip for 4 days; assay type: functional, organism-based; set-up: dose 10 mg/kg
[20] = tested on: Trypanosoma brucei rhodesiense; experiment: Antitrypanosomal activity against wild-type Trypanosoma brucei rhodesiense STIB900 infected in NMRI mouse assessed as survival of mouse at 0.5 mg/kg, ip for 4 days; assay type: functional; settings: route intraperitoneal
[21] = tested on: Trypanosoma brucei brucei; experiment: Antitrypanosomal activity against Trypanosoma brucei brucei GVR35 infected in NMRI mouse CNS model assessed as cure from infection at 20 mg/kg, ip for 10 days; assay type: functional, organism-based; set-up: dose 20 mg/kg
[22] = tested on: Trypanosoma brucei brucei; experiment: Antitrypanosomal activity against Trypanosoma brucei brucei GVR35 infected in NMRI mouse CNS model assessed as cure from infection at 10 mg/kg, ip for 10 days; assay type: functional, organism-based; set-up: dose 10 mg/kg
[23] = tested on: Trypanosoma brucei brucei; experiment: Antitrypanosomal activity against Trypanosoma brucei brucei GVR35 infected in NMRI mouse CNS model assessed as survival of mouse at 20 mg/kg, ip for 5 days; assay type: functional; settings: route intraperitoneal
[24] = tested on: Trypanosoma brucei brucei; experiment: Antitrypanosomal activity against Trypanosoma brucei brucei GVR35 infected in NMRI mouse CNS model assessed as survival of mouse at 20 mg/kg, ip for 10 days; assay type: functional; settings: route intraperitoneal
[25] = tested on: Trypanosoma brucei brucei; experiment: Antitrypanosomal activity against Trypanosoma brucei brucei GVR35 infected in NMRI mouse CNS model assessed as survival of mouse at 10 mg/kg, ip for 10 days; assay type: functional; settings: route intraperitoneal
[26] = tested on: Trypanosoma brucei rhodesiense; experiment: Antitrypanosomal activity against wild-type Trypanosoma brucei rhodesiense STIB900 infected in NMRI mouse assessed as cure from infection at 25 mg/kg, po for 4 days; assay type: functional, organism-based; set-up: dose 25 mg/kg
[27] = tested on: Trypanosoma brucei rhodesiense; experiment: Antitrypanosomal activity against wild-type Trypanosoma brucei rhodesiense STIB900 infected in NMRI mouse assessed as survival of mouse at 25 mg/kg, po for 4 days; assay type: functional
[28] = tested on: Trypanosoma brucei rhodesiense; experiment: Antitrypanosomal activity against wild-type Trypanosoma brucei rhodesiense STIB900 infected in NMRI mouse assessed as survival of mouse at 5 mg/kg, po for 4 days; assay type: functional
[29] = tested on: Trypanosoma brucei brucei; experiment: Antitrypanosomal activity against Trypanosoma brucei brucei GVR35 infected in NMRI mouse CNS model assessed as cure from infection at 100 mg/kg, po for 5 days; assay type: functional, organism-based; set-up: dose 100 mg/kg
[30] = tested on: Trypanosoma brucei brucei; experiment: Antitrypanosomal activity against Trypanosoma brucei brucei GVR35 infected in NMRI mouse CNS model assessed as survival of mouse at 100 mg/kg, po for 5 days; assay type: functional
[31] = tested on: Trypanosoma brucei brucei; experiment: Antitrypanosomal activity against Trypanosoma brucei brucei GVR35 infected in NMRI mouse CNS model assessed as survival of mouse at 50 mg/kg, po for 5 days; assay type: functional
[32] = tested on: Trypanosoma brucei brucei; experiment: Antitrypanosomal activity against Trypanosoma brucei brucei GVR35 infected in NMRI mouse CNS model assessed as survival of mouse at 75 mg/kg, po for 5 days; assay type: functional
[33] = tested on: Trypanosoma brucei rhodesiense; experiment: Antitrypanosomal activity against wild-type Trypanosoma brucei rhodesiense STIB900 infected in NMRI mouse assessed as cure from infection at 50 mg/kg, po for 4 days; assay type: functional, organism-based; set-up: dose 50 mg/kg
[34] = tested on: Trypanosoma brucei rhodesiense; experiment: Antitrypanosomal activity against wild-type Trypanosoma brucei rhodesiense STIB900 infected in NMRI mouse assessed as survival of mouse at 50 mg/kg, po for 4 days; assay type: functional
[35] = tested on: Trypanosoma brucei brucei; experiment: Antitrypanosomal activity against Trypanosoma brucei brucei GVR35 infected in NMRI mouse CNS model assessed as cure from infection at 50 mg/kg, po for 5 days; assay type: functional, organism-based; set-up: dose 50 mg/kg
[36] = tested on: Trypanosoma brucei brucei; experiment: Antitrypanosomal activity against Trypanosoma brucei brucei GVR35 infected in NMRI mouse CNS model assessed as cure from infection at 25 mg/kg, po for 5 days; assay type: functional, organism-based; set-up: dose 25 mg/kg
[37] = tested on: Trypanosoma brucei brucei; experiment: Antitrypanosomal activity against Trypanosoma brucei brucei GVR35 infected in NMRI mouse CNS model assessed as cure from infection at 25 mg/kg, po for 10 days; assay type: functional, organism-based; set-up: dose 25 mg/kg
[38] = tested on: Trypanosoma brucei brucei; experiment: Antitrypanosomal activity against Trypanosoma brucei brucei GVR35 infected in NMRI mouse CNS model assessed as survival of mouse at 25 mg/kg, po for 5 days; assay type: functional
[39] = tested on: Trypanosoma brucei brucei; experiment: Antitrypanosomal activity against Trypanosoma brucei brucei GVR35 infected in NMRI mouse CNS model assessed as survival of mouse at 50mg/kg, po for 10 days; assay type: functional
[40] = tested on: Trypanosoma brucei brucei; experiment: Antitrypanosomal activity against Trypanosoma brucei brucei GVR35 infected in NMRI mouse CNS model assessed as survival of mouse at 25 mg/kg, po for 10 days; assay type: functional
[41] = tested on: Trypanosoma brucei brucei; experiment: Antitrypanosomal activity against Trypanosoma brucei brucei GVR35 infected in NMRI mouse CNS model assessed as survival of mouse at 10 mg/kg, po for 10 days; assay type: functional
[42] = tested on: Trypanosoma brucei rhodesiense; experiment: Antitrypanosomal activity against wild-type Trypanosoma brucei rhodesiense STIB900 infected in NMRI mouse assessed as survival of mouse at 100 mg/kg, po for 4 days; assay type: functional

Compound | IC50 [1] | IC50 [2] | IC50 [3] | IC50 [4] | IC50 [5] | IC50 [6] | IC50 [7] | IC50 [8] | Ratio IC50 [9] | Ratio IC50 [10] | Ratio IC50 [11] | Ratio IC50 [12] | Ratio IC50 [13] | Ratio IC50 [14] | MSD [15] | Ratio IC50 [17] | Activity [26] | MSD [27] | MSD [28] | MSD [30] | further results
N=C(N)c1ccc(OCCCCCOc2ccc(C(=N)N)cc2)cc1 [PENTAMIDINE] | 0.0012 µg/mL (≈ 0.00352 µM) | 0.134 µg/mL (≈ 0.392 µM) | 0.124 µg/mL (≈ 0.366 µM) | 0.0155 µg/mL (≈ 0.0455 µM) | 0.0042 µg/mL (≈ 0.0123 µM) | 0.0011 µg/mL (≈ 0.00323 µM) | 0.0009 µg/mL (≈ 0.00264 µM) | 0.0041 µg/mL (≈ 0.012 µM) | 113.1 | 105.4 | 13.1 | 3.6 | 0.9 | 4.3 | >57.5 days |  |  |  |  |  | MSD [16]: >45 days
N=C(N)c1ccc(-c2ccc(-c3ccc(C(=N)N)cn3)o2)nc1 |  | 0.0679 µg/mL (≈ 0.222 µM) | 0.0643 µg/mL (≈ 0.21 µM) | 0.0395 µg/mL (≈ 0.129 µM) | 0.0162 µg/mL (≈ 0.0529 µM) | 0.0351 µg/mL (≈ 0.115 µM) | 0.006 µg/mL (≈ 0.0196 µM) | 0.106 µg/mL (≈ 0.347 µM) | 10.5 | 10 | 6.1 | 2.5 | 5.4 | 17.8 | >60 days | 14 |  |  |  |  | Activity [18]: Active; Activity [19]: Active; MSD [20]: >31 days; Activity [21]: Active; Activity [22]: inactive; MSD [23]: >132.3 days; MSD [24]: >180 days; MSD [25]: 95.6 days
CO/N=C(\N)c1ccc(-c2ccc(-c3ccc(/C(N)=N\O)cn3)o2)cc1 |  |  |  |  |  |  |  |  |  |  |  |  |  |  |  |  | Active | >60 days | >39.5 days | >180 days | Activity [29]: Active; MSD [31]: >157.2 days; MSD [32]: >164.8 days
CONC(=N)c1ccc(-c2ccc(-c3ccc(C(=N)NOC)cc3)o2)cc1 [PAFURAMIDINE] |  |  |  |  |  |  |  |  |  |  |  |  |  |  |  |  | Active | >60 days |  | >167.8 days | Activity [33]: Active; MSD [34]: >60 days; Activity [35]: inactive; Activity [36]: inactive; Activity [37]: inactive; MSD [31]: >153.6 days; MSD [38]: 75.4 days; MSD [39]: >172.2 days; MSD [40]: >146.6 days
CO/N=C(/N)c1ccc(-c2ccc(-c3ccc(/C(N)=N/O)cc3)o2)nc1 |  |  |  |  |  |  |  |  |  |  |  |  |  |  |  |  | Active | >60 days | >52.75 days | >180 days | Activity [41]: Active; MSD [42]: >60 days; MSD [32]: >166 days
Nc1nc(N)nc(Nc2ccc([As]3SCC(CO)S3)cc2)n1 (stereo not given) [MELARSOPROL] | 0.0014 µg/mL | 0.0282 µg/mL | 0.0567 µg/mL | 0.0031 µg/mL | 0.0027 µg/mL | 0.0053 µg/mL | 0.0036 µg/mL | 0.0187 µg/mL | 20.9 | 42 | 2.3 | 2 | 3.9 | 5.2 |  | 14 |  |  |  |  | 
